{"source": "patent US7262289B2", "about": "“KCNQ potassium channels and methods of modulating same” (Bristol-Myers Squibb Co., priority 1997, dated 2007)", "key": {"KCNQ2+KCNQ3": {"biological_target": "T1, KCNQ2+KCNQ3 (Homo sapiens, UniProt O43525+O43526, DEL509-509/N780T)", "T1 construct": "The full-length cDNAs were subcloned into a Xenopus expression vector, derived from pSP64T plasmid; expressed in transfected cells; host or cells: Xenopus laevis oocytes (co-injection of cRNAs)", "type": "cell-based", "protocol": "FIGS. 19A-19F show co-expression of KCNQ2 and KCNQ3. […] Currents were recorded using the protocol in FIGS. 19A-19C. […] The dashed line has a slope predicted by the Nernst equation for a perfectly selective K^+ channel. Each value is the mean±SEM from 6 oocytes. […] Superimposed currents were recorded during 1 sec steps to +20 mV, from […], during the same experiment. Compounds were applied via bath perfusion in order from top to bottom.\n(§1) Stage V and VI Xenopus laevis oocytes were defolliculated with collagenase treatment and injected with cRNAs, as described in Yang et al., supra. Currents were recorded at room temperature using the two-microelectrode voltage clamp (Dagan TEV-200) technique between 3-5 days after injection of KCNQ2 (15 ng), KCNQ3 (15 ng), or KCNE1 (2 ng) cRNA alone or in combination. Microelectrodes (0.8 to 1.5 MΩ) were filled with 3 M KCl . Bath solution contained (in mM): 96 NaCl, 2 KCl , 0.4-1.8 CaCl2, 1-2 MgCl2 and 5 HEPES (pH 7.5). KCl was varied in some experiments by equimolar substitution with NaCl.\n(§2) Axoclamp (Axon Instruments) was used for generating voltage clamp commands and acquiring data and Axograph 3.0 (Axon Instruments) was used for data analysis. All data was sampled at rates at least two times the low pass filter rate. Experiments were performed at 22-25° C."}, "KCNQ3": {"biological_target": "T2, KCNQ3 (Homo sapiens, UniProt O43525)", "T2 construct": "The full-length human KCNQ2 and KCNQ3 cDNAs were subcloned into a Xenopus expression vector and cRNA was generated by in vitro transcription; expressed in transfected cells; host or cells: Xenopus laevis oocytes (cRNA injection)", "type": "cell-based", "protocol": "FIGS. 18A-18D show the functional characterization of KCNQ3 currents. […] Currents were recorded using the protocol in FIG. 18A. […] Each value is the mean±SEM from 6 oocytes. […] Superimposed currents were recorded during 1 sec steps to +20 mV, from −80 mV, during the same experiment. Compounds were applied via bath perfusion in order from top to bottom. The bath was perfused with control solution for 5 min, or until effects reversed completely, between compounds.\nas §1, §2"}, "human KCNQ2/KvLR1": {"biological_target": "T3, human KCNQ2/KvLR1 (Homo sapiens, UniProt O43526, DEL509-509/N780T)", "T3 construct": "The full-length human KCNQ2 and KCNQ3 cDNAs were subcloned into a Xenopus expression vector and cRNA was generated by in vitro transcription; expressed in transfected cells; host or cells: Xenopus laevis oocytes (cRNA injection)", "type": "cell-based", "protocol": "Superimposed currents were recorded during 1 second steps to +30 mV, from −80 mV, during the same experiment. Compounds were applied via bath perfusion in order from top to bottom. The bath was perfused with control solution for 5 minutes, or until effects reversed completely, between compounds.\nInhibitors of various potassium channels present in brain and other tissues were used to investigate the pharmacology of KCNQ2/KvLR1.\nas §1, §2"}, "KCNQ1/KvLQT1 [1]": {"biological_target": "T4, KCNQ1/KvLQT1 (Homo sapiens, UniProt P51787)", "conditions": "from Yang et al. (1997); cited from earlier work"}, "murine KCNQ2/KvLR1": {"biological_target": "T5, murine KCNQ2/KvLR1 (Mus musculus, UniProt Q9Z351, DEL481-481/H600Q/P326Q)", "T5 construct": "Also disclosed is a full-length murine cDNA clone of KCNQ2 (murine KvLR1); expressed in transfected cells; host or cells: Xenopus oocytes (cRNA injection)", "assay": "murine KCNQ2/KvLR1-mediated whole-cell currents in Xenopus oocytes, 2-electrode voltage clamp", "type": "cell-based", "conditions": "for effect on murine KCNQ2-mediated currents: concentration not given", "protocol": "FIGS. 15A and 15B show electrophysiology characterization of mouse KCNQ2/KvLR1-mediated whole-cell currents expressed in Xenopus oocytes.\nTo test for functional expression, cRNA was prepared from the murine KCNQ2/KvLR1 gene and injected into Xenopus oocytes. In a two-electrode voltage clamp, a family of outward currents were generated in murine KCNQ2/KvLR1 cRNA-injected oocytes (n>20). After a minimum of 48 hours, currents qualitatively and quantitatively different than native currents generated with identical protocols in water injected or uninjected control cells (representing Ca^2+-activated chloride currents and other native currents) (FIG. 15). […] Similar currents were obtained from CHO cells stably expressing murine KCNQ2 and recorded using patch-clamp techniques. Single channel conductances were estimated to be 24-30 pS in symmetrical 140 mM potassium. (FIG. 22).\nThe murine KCNQ2/KvLR1 cDNAs were linearized with the restriction enzyme NotI and in vitro transcribed using the mMessage mMachine T7 RNA polymerase kit according to the manufacturer's instructions (Ambion, Austin, Tex.). The cRNAs were solubilized in RNase-free water, and stored at −70° C. at a concentration of 1.0 μg/μl. Frog oocytes were prepared and injected using standard techniques (Colman, 1984). In murine KvLR1 expression experiments, each oocyte was injected with approximately 35-40 nl of the cRNA. Following injection, oocytes were maintained at 17° C., in ND96 medium consisting of (in mM): NaCl, 90; KCl, 1.0; CaCl2, 1.0; MgCl2, 1.0; HEPES, 5.0; pH 7.5. Horse serum and penicillin/streptomycin, both 5% of final volume, were added as supplements to the incubation medium. Electrophysiological recording commenced 2-6 days following cRNA injection. Prior to the start of an experiment oocytes were placed in a recording chamber and incubated in Modified Barth's Solution (MBS) consisting of (in mM): NaCl, 88; NaHCO3, 2.4; KCl, 1.0; HEPES, 10; MgSO4, 0.82; Ca(NO3)2, 0.33; CaCl2, 0.41; pH 7.5. Oocytes were impaled with electrodes (1-2 MΩ) and standard 2-electrode voltage clamp techniques were employed to record whole-cell membrane currents (Stuhmer, 1992; TEC 200, Dagan Instruments). Voltage-clamp protocols typically consisted of a series of voltage steps 100-500 ms duration, in +10 mV steps from a holding potential of −60 mV to −90 mV to a maximal potential of +40 mV to +50 mV; records were digitized at 5 kHz and stored on a computer using pClamp 6.0 software (Axon Instruments), and analyzed using ClampFit or AxoGraph software (Axon Instruments)."}, "minK+human KCNQ2/KvLR1": {"biological_target": "minK+human KCNQ2/KvLR1 (Homo sapiens, UniProt O43526)", "sequence (O43526 whole entry)": "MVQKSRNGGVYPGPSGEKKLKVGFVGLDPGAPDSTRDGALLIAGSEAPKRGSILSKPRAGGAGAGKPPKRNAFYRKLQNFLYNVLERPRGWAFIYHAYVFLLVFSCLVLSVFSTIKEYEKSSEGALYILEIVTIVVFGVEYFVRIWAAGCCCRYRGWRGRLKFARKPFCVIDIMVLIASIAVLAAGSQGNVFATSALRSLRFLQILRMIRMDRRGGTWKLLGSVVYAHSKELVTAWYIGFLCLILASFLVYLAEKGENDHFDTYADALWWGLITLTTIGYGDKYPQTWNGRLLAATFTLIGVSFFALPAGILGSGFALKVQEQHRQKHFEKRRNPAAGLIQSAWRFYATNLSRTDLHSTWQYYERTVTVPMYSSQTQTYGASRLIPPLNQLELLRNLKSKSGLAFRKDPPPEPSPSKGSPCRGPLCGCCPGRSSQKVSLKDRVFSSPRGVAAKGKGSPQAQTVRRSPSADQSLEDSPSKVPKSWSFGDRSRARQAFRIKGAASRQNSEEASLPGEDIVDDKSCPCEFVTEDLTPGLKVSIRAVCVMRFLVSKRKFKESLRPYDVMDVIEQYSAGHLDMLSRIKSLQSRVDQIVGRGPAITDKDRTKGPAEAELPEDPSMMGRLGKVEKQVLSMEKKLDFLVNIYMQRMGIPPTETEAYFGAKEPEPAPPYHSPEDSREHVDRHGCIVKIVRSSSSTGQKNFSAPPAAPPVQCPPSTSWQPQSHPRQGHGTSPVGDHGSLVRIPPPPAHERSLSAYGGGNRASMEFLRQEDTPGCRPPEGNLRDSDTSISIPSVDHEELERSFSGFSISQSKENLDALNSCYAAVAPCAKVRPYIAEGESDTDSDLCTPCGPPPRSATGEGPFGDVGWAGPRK", "conditions": "1 mM, steps to +40 mV from −80 mV", "protocol": "as §1"}, "KCNQ1/KvLQT1 [2]": {"biological_target": "T4, KCNQ1/KvLQT1", "assay": "KCNQ1/KvLQT1 currents (comparison)", "type": "cell-based", "conditions": "no citation, concentration not given"}, "[3]": {"conditions": "10 μM, steps to +30 mV from −80 mV"}}, "note": "Read-outs that look alike come from different tables or passages of the source.", "data": [{"molecule": "Nc1ccncc1", "note": "[4-AP, 4-aminopyridine]", "values": [{"measurement": "sensitivity of KCNQ2+KCNQ3 current to inhibition", "setting": "KCNQ2+KCNQ3; 2 mM", "value": "not"}, {"measurement": "effect on KCNQ3 current", "setting": "KCNQ3; 2 mM", "value": "no effect"}, {"measurement": "effect on KCNQ2/KvLR1 current", "setting": "human KCNQ2/KvLR1; 0.2 mM", "value": "Neither E-4031 nor 4-AP produced significant effects"}, {"measurement": "inhibition of KCNQ1/KvLQT1 currents", "setting": "KCNQ1/KvLQT1 [1]", "value": "do not inhibit"}]}, {"molecule": "Cc1cccc(CCN2CCC(C(=O)c3ccc(NS(C)(=O)=O)cc3)CC2)n1", "note": "[E-4031]", "values": [{"measurement": "sensitivity of KCNQ2+KCNQ3 current to inhibition", "setting": "KCNQ2+KCNQ3; 10 μM", "value": "did not inhibit"}, {"measurement": "effect on KCNQ3 current", "setting": "KCNQ3; 10 μM", "value": "no effect"}, {"measurement": "effect on KCNQ2/KvLR1 current", "setting": "human KCNQ2/KvLR1; [3]", "value": "Neither E-4031 nor 4-AP produced significant effects"}, {"measurement": "inhibition of KCNQ1/KvLQT1 currents", "setting": "KCNQ1/KvLQT1 [1]", "value": "do not inhibit"}]}, {"molecule": "CC[N+](CC)(CC)CC", "note": "[TEA, tetraethylammonium]", "values": [{"measurement": "sensitivity of KCNQ2+KCNQ3 current to inhibition", "setting": "KCNQ2+KCNQ3", "value": "weakly sensitive to inhibition"}, {"measurement": "effect on KCNQ3 current", "setting": "KCNQ3", "value": "little inhibition"}, {"measurement": "effect on KCNQ2 current", "setting": "human KCNQ2/KvLR1", "value": "strongly inhibited"}, {"measurement": "block of murine KCNQ2/KvLR1-mediated currents", "setting": "murine KCNQ2/KvLR1", "value": "blocked"}, {"measurement": "effect on minK+human KCNQ2/KvLR1 currents", "setting": "minK+human KCNQ2/KvLR1", "value": "partially inhibited"}]}, {"molecule": "CCCCCCC[N+](CC)(CC)CCCCc1ccc(Cl)cc1", "note": "[clofilium]", "values": [{"measurement": "sensitivity of KCNQ2+KCNQ3 current to inhibition", "setting": "KCNQ2+KCNQ3; 10 μM", "value": "weakly sensitive to inhibition"}, {"measurement": "reduction of KCNQ3 current from control", "setting": "KCNQ3; 10 μM", "value": 30, "unit": "%"}, {"measurement": "effect on KCNQ2/KvLR1 current", "setting": "human KCNQ2/KvLR1; [3]", "value": "little effect"}, {"measurement": "inhibition of KCNQ1/KvLQT1 currents", "setting": "KCNQ1/KvLQT1 [1]", "value": "strong inhibitor"}, {"measurement": "block of murine KCNQ2-mediated currents", "setting": "murine KCNQ2/KvLR1; 20 μM, depolarized from −80 to +40", "value": "partially block"}]}, {"molecule": "Charybdotoxin", "values": [{"measurement": "sensitivity of KCNQ2+KCNQ3 current to inhibition", "setting": "KCNQ2+KCNQ3; 100 nM", "value": "not"}, {"measurement": "effect on KCNQ3 current", "setting": "KCNQ3; 100 nM", "value": "no effect"}, {"measurement": "effect on KCNQ2/KvLR1 current", "setting": "human KCNQ2/KvLR1; 0.1 mM (concentration tested)", "value": "did not inhibit"}, {"measurement": "effect on murine KCNQ2-mediated currents", "setting": "murine KCNQ2/KvLR1", "value": "no significant effect"}, {"measurement": "effect on KCNQ1/KvLQT1", "setting": "KCNQ1/KvLQT1 [2]", "value": "no effect"}]}, {"molecule": "iberiotoxin: specific K+ channel blocking toxin (QFTDVDCSVSKECWSVCKDLFGVDRGKCMGKKCRCYQ)", "values": [{"measurement": "effect on murine KCNQ2-mediated currents", "setting": "murine KCNQ2/KvLR1", "value": "no significant effect"}]}, {"molecule": "α-dendrotoxin (QPRRKLCILHRNPGRCYDKIPAFYYNQKKKQCERFDWSGCGGNSNRFKTIEECRRTCIG)", "values": [{"measurement": "effect on murine KCNQ2-mediated currents", "setting": "murine KCNQ2/KvLR1", "value": "no significant effect"}]}]}
